BindingDB's records for doi:10.1021/jm800318d (Vertex Pharmaceuticals, 2008)

biological target: DNA gyrase A/A/B/B tetramer (Escherichia coli (strain K12), UniProt P0AES4+P0AES6); test: DNA Gyrase ATPase Assay

| SMILES | Ki [nM] |
| --- | --- |
| CCNC(=O)Nc1nc2c(-n3cccn3)cc(-c3cccnc3)cc2[nH]1 [3-ethyl-1-[7-(1H-pyrazol-1-yl)-5-(pyridin-3-yl)-1H-1,3-benzodiazol-2-yl]urea] | < 4 |
| CCNC(=O)Nc1nc2c(-n3cccn3)cc(-c3cncnc3)cc2[nH]1 [3-ethyl-1-[7-(1H-pyrazol-1-yl)-5-(pyrimidin-5-yl)-1H-1,3-benzodiazol-2-yl]urea] | < 4 |
| CCNC(=O)Nc1nc2cc(-c3ccn(C)c(=O)c3)cc(-c3ncccc3F)c2[nH]1 [3-ethyl-1-[7-(3-fluoropyridin-2-yl)-5-(1-methyl-2-oxo-1,2-dihydropyridin-4-yl)-1H-1,3-benzodiazol-2-yl]urea] | < 4 |
| CCNC(=O)Nc1nc2cc(-c3cccnc3)cc(-c3ncccc3F)c2[nH]1 [3-ethyl-1-[7-(3-fluoropyridin-2-yl)-5-(pyridin-3-yl)-1H-1,3-benzodiazol-2-yl]urea] | < 4 |
| CCNC(=O)Nc1nc2cc(-c3cccnc3)cc(-c3ccccn3)c2[nH]1 [3-ethyl-1-[7-(pyridin-2-yl)-5-(pyridin-3-yl)-1H-1,3-benzodiazol-2-yl]urea] | < 4 |
| CCNC(=O)Nc1nc2cc(-n3cnc(C(=O)NC4CC4)c3)c(F)cc2[nH]1 [N-cyclopropyl-1-{2-[(ethylcarbamoyl)amino]-6-fluoro-1H-1,3-benzodiazol-5-yl}-1H-imidazole-4-carboxamide] | < 4 |
| CCNC(=O)Nc1nc2c(-n3cccn3)cc(-n3cnc(C(=O)NC4CC4)c3)cc2[nH]1 [N-cyclopropyl-1-{2-[(ethylcarbamoyl)amino]-7-(1H-pyrazol-1-yl)-1H-1,3-benzodiazol-5-yl}-1H-imidazole-4-carboxamide] | < 4 |
| CCNC(=O)Nc1nc2c(-c3ccccn3)cc(-n3cnc(C(=O)NC4CC4)c3)cc2[nH]1 [N-cyclopropyl-1-{2-[(ethylcarbamoyl)amino]-7-(pyridin-2-yl)-1H-1,3-benzodiazol-5-yl}-1H-imidazole-4-carboxamide] | < 4 |
| CCNC(=O)Nc1nc2cc(-c3cccnc3)cc(C(=O)OC)c2[nH]1 [methyl 2-[(ethylcarbamoyl)amino]-5-(pyridin-3-yl)-1H-1,3-benzodiazole-7-carboxylate] | < 4 |
